Assays:
[1] = Visual evaluation of discoloration of powder lotion-type antiperspirant lotions; type: physicochemical
Procedure: Recipes shown in Table 1-1 and Table 1-2 were used to prepare powder lotion-type antiperspirant lotions and the degree of discoloration was evaluated visually. For Comparative examples, a recipe containing no trisodium ethylenediaminehydroxyethyl triacetate and a recipe containing a chelating agent EDTA-3Na.2H2O instead of trisodium ethylenediaminehydroxyethyl triacetate were investigated. The degree of discoloration was evaluated by giving ◯ to those that are within the acceptable range for skin treatment composition, and × to those that are outside of this range.

[2] = Staining of clothing after application, sunlight exposure and washing (visual observation); type: physicochemical
Procedure: Recipes shown in Table 3-1 and Table 3-2 were used to prepare powder lotion-type antiperspirant lotions and a prescribed amount (4 micrograms/cm^2) is applied on clothing. The clothing was exposed to sunlight (10 minutes) and washed with common laundry detergent in a washing machine; the degree of staining was then evaluated by visual observation. For Comparative examples, recipes not containing polyoxyethylene polyoxypropylene 2-decyltetradecyl ether (20-28 E.O.) (10-16 P.O.) and recipes containing polyoxyethylene (E.O. 60) were investigated. The degree of staining was evaluated by giving ◯ to those that are within the acceptable range for skin treatment compositions, and × to those that are outside of this range.

Compound: O=C([O-])CN(CCN(CC(=O)[O-])CC(=O)O)CC(=O)[O-].[Na+].[Na+].[Na+] [EDTA-3Na]
- anti-discoloration effect of the ingredient in skin treatment compositions containing anti-bacterial zeolite [1]: do not have the anti-discoloration effect

Compound: O=C([O-])CN(CCO)CCN(CC(=O)[O-])CC(=O)[O-].[Na+].[Na+].[Na+] [trisalt ethylenediaminehydroxyethyl triacetate]
- anti-discoloration effect of the ingredient in skin treatment compositions containing anti-bacterial zeolite [1]: acts as an anti-discoloration agent

Compound: polyoxyethylene (E.O. 60) hydrogenated castor oil
- anti-staining effect of the ingredient in skin treatment compositions containing anti-bacterial zeolite [2]: do not have an anti-staining effect

Compound: polyoxyethylene polyoxypropylene 2-decyltetradecyl ether (20-28 E.O.) (10-16 P.O.)
- anti-staining effect of the ingredient in skin treatment compositions containing anti-bacterial zeolite [2]: acts as an anti-staining agent
